Earlier results as cited in patent US20070243268A1, “Compositions for regulating intestinal disorders and methods of use thereof” (priority 2005, published 2007).

Test system: prostate cancer
Settings: 970 men, 200 mcg selenium daily (as selenium-enriched yeast) for 4.5 years

## [Se] [selenium]
  reduction in the incidence of prostate cancer: 63%
